Literature values, collected in US20190105332A1, “METHODS OF TREATING PROSTATE CANCER” (Janssen Oncology, Inc., priority 2017, published 2019).
Like-named read-outs stand apart in the source and are kept apart here. One block for each compound: values may come before it.

Assays:
[1] = for activity of metabolite / share of exposure as circulating metabolite in human plasma: in vivo
[2] = system: primary human lymphocytes
[3] = system: human plasma proteins, albumin and alpha-1 acid glycoprotein
CYP1A2 = target: T1, CYP1A2 (Homo sapiens, UniProt P05177); design: In vitro studies with human hepatic microsomes; from tissue; host or cells: human hepatic microsomes; details: human hepatic microsomes
T1 sequence (P05177 1-516): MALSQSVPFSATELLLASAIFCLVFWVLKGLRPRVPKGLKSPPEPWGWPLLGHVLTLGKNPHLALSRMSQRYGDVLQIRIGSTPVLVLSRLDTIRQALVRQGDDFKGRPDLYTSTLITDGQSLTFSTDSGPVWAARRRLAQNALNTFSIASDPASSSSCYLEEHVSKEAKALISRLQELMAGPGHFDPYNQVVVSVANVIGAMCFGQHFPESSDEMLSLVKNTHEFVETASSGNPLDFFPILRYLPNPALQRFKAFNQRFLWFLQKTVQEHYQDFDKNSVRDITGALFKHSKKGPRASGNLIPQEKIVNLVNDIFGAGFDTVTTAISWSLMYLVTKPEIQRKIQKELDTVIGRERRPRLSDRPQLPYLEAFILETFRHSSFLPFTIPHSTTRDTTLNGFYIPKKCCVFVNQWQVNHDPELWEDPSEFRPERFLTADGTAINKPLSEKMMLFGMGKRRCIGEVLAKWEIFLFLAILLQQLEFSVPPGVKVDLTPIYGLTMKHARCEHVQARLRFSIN

[4] = not given; remark: listed apart in the source
[5] = end-stage renal disease on dialysis; single oral 1,000 mg dose
OATP1B1 = target: T2, OATP1B1 (Homo sapiens, UniProt Q9Y6L6); details: in vitro
T2 sequence (Q9Y6L6 1-691): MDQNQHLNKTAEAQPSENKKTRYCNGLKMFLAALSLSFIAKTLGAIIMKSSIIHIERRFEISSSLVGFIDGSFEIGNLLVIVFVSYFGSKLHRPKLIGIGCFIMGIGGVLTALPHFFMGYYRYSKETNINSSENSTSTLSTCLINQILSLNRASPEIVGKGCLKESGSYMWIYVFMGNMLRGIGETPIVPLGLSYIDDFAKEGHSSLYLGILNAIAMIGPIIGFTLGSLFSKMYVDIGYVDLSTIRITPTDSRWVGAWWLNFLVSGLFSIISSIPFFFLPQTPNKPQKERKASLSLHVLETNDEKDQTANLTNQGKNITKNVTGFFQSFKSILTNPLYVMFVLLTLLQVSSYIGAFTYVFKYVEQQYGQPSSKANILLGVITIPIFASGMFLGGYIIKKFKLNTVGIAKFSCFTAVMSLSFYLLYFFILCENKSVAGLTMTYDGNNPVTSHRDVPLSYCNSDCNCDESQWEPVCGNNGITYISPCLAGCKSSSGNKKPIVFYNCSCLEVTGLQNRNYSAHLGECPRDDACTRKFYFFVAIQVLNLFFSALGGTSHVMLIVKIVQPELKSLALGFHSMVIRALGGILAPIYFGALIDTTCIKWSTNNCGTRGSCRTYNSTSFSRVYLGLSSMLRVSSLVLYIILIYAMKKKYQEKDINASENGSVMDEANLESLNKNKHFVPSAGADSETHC

CYP3A4 [6] = target: T3, CYP3A4 (Homo sapiens, UniProt P08684); design: from tissue; host or cells: in vivo, healthy human subjects (endogenous enzyme); details: healthy subjects
P-glycoprotein (P-gp) = P-glycoprotein (P-gp) (Homo sapiens, UniProt P08183); details: in vitro, clinically relevant concentrations
CYP2D6 = target: T4, CYP2D6 (Homo sapiens, UniProt P10635); details: human hepatic microsomes
T4 construct: from tissue; host or cells: in vivo, trial participants (endogenous hepatic enzyme)

CYP2C9 = target: T5, CYP2C9 (Homo sapiens, UniProt P11712); details: human hepatic microsomes
T5 construct: In vitro studies with human hepatic microsomes; from tissue; host or cells: human hepatic microsomes

[7] = rat micronucleus assay
[8] = not given; remark: listed apart in the source
CYP3A4 [9] = target: T3, CYP3A4; details: in vitro
[10] = healthy subjects, single dose with high-fat (57% fat, 825 calories) meal
[11] = healthy subjects, single dose with low-fat meal (7% fat, 300 calories)

T3 sequence (P08684 whole entry): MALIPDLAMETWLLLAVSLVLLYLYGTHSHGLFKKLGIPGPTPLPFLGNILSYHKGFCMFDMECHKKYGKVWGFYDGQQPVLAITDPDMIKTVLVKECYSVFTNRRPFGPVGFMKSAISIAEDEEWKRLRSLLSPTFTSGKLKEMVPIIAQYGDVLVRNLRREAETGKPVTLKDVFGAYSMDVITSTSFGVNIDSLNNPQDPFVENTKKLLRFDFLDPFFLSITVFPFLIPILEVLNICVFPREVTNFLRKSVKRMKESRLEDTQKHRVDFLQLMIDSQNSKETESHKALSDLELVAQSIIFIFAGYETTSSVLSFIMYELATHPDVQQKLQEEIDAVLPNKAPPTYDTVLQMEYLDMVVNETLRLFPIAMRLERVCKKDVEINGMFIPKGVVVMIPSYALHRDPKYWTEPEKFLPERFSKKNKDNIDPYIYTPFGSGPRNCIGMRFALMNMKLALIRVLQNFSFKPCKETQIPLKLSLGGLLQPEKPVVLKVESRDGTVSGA
Sequence of P-glycoprotein (P-gp) (P08183 whole entry): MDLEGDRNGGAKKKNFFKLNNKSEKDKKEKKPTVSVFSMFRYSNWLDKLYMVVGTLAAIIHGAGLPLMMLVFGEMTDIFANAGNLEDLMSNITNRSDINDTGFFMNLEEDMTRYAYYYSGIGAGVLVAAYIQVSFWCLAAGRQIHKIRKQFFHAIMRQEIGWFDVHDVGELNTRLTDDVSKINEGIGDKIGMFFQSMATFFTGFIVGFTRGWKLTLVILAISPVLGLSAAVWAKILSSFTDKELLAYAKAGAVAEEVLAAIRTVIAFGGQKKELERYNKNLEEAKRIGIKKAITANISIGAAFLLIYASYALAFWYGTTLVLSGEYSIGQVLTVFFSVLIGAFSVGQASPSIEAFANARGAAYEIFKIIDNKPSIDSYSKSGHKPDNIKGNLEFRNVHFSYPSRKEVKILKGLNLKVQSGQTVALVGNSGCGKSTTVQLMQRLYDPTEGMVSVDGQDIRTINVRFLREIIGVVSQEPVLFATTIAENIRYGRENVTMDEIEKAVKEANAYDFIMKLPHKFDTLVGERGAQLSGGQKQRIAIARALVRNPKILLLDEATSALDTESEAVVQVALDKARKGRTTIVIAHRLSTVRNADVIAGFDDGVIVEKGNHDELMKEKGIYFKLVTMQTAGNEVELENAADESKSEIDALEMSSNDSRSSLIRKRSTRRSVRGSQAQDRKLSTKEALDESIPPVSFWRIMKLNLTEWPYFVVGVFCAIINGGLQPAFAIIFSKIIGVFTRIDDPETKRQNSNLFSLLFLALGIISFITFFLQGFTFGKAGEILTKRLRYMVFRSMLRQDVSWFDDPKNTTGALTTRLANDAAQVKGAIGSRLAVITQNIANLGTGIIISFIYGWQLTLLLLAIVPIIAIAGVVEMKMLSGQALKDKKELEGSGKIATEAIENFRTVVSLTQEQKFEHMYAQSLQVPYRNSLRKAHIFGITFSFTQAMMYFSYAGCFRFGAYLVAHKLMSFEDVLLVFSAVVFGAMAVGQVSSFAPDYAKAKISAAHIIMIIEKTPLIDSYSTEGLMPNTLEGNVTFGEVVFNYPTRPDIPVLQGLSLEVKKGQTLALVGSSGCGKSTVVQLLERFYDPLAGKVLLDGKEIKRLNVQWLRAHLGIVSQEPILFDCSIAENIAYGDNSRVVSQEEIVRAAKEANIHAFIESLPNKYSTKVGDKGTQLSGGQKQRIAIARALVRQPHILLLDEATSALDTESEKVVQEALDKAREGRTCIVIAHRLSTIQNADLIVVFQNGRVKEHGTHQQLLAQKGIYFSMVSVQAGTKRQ
T4 sequence (P10635 whole entry): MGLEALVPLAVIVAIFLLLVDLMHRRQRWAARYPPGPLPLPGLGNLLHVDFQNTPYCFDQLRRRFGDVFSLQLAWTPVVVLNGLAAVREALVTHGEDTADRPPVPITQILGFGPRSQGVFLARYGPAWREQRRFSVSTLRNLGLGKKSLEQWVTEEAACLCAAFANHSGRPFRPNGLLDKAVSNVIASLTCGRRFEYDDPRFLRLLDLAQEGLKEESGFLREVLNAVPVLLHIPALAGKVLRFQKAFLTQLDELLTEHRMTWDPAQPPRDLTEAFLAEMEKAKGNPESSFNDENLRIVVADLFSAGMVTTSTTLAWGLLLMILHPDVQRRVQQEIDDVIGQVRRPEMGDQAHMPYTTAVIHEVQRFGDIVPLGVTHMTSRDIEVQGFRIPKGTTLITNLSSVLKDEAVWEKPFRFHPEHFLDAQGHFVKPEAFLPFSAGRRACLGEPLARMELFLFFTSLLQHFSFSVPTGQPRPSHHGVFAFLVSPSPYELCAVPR
T5 sequence (P11712 whole entry): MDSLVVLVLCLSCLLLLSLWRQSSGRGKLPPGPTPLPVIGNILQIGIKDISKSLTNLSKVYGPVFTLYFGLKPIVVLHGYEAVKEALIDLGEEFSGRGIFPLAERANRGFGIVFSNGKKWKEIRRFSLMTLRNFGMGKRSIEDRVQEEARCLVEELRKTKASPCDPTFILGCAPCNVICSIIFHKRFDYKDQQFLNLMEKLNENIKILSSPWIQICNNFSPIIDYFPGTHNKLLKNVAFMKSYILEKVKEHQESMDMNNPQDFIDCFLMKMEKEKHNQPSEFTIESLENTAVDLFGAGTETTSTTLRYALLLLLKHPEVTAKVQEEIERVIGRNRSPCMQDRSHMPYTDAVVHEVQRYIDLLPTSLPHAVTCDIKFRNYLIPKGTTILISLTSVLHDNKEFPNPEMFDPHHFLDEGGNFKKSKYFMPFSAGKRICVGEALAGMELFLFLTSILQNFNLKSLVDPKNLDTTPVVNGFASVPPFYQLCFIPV

share of exposure as circulating metabolite in human plasma [1]: about 43%
Compound: C[C@]12CC[C@H](OS(=O)(=O)O)CC1=CC[C@@H]1[C@@H]2CC[C@]2(C)C(c3ccc[n+]([O-])c3)=CC[C@@H]12 [N-oxide abiraterone sulphate]
activity of metabolite [1]: inactive

steady-state Cmax (mean±SD) (1,000 mg daily, patients with metastatic CRPC): 226 ± 178 ng/mL
increase in the mean AUC when dose doubled (from 1,000 to 2,000 mg): 8%
accumulation: steady-state AUC compared to a single 1,000 mg dose (human, in vivo): 2 fold
median time to reach maximum plasma abiraterone concentrations (oral abiraterone acetate, patients with metastatic CRPC): 2 h
bound to human plasma proteins [3]: > 99%
inhibition of CYP1A2 (CYP1A2): potential to inhibit
AUC0-∞, fold higher vs overnight fasting [4, 10]: ~10 fold
Cmax, fold higher vs overnight fasting [4, 10]: approximately 17 fold
AUC0-∞, fold higher vs overnight fasting [4, 11]: ~5 fold
Cmax, fold higher vs overnight fasting [4, 11]: approximately 7 fold
systemic exposure increase vs dosing away from meals ([4]; patients with metastatic CRPC, repeated dosing with high-fat meals for 7 days): approximately 2 fold
systemic exposure vs dosing away from meals ([4]; patients with metastatic CRPC, repeated dosing with low-fat meals for 7 days): similar
AUC0-∞, fold higher vs overnight fasting ([4]; single dose 1 hour before a medium fat meal (25% fat, 491 calories)): ~1.6 fold
AUC0-∞, fold higher vs overnight fasting ([4]; single dose 2 hours after a medium fat meal (25% fat, 491 calories)): approximately 7 fold
systemic exposure vs normal renal function [5]: did not increase
inhibition of hepatic uptake transporter OATP1B1 (OATP1B1): inhibit
effect of ketoconazole co-administration on pharmacokinetics (CYP3A4 [6]): no clinically meaningful effect
decrease of exposure (mean plasma AUC∞) with rifampin (CYP3A4 [6]; rifampin 600 mg daily for 6 days, then single 1,000 mg abiraterone acetate): 55%
substrate of P-glycoprotein (P-gp) (P-glycoprotein (P-gp)): not substrates
inhibition of CYP2D6 (CYP2D6): potential to inhibit
inhibition of CYP2C9 (CYP2C9): to a lesser extent
compound present in feces, share of the administered dose ([1]; oral 14C-abiraterone acetate): ~22%
mean half-life ([8]; mild hepatic impairment): approximately 18 hours
mean half-life ([8]; moderate hepatic impairment): approximately 19 hours
systemic exposure (AUC) increase vs normal hepatic function ([8]; moderate hepatic impairment (Child-Pugh Class B), single oral 1,000 mg dose): ~3.6 fold
systemic exposure (AUC) increase vs normal hepatic function ([8]; severe hepatic impairment (Child-Pugh Class C)): approximately 7 fold
substrate of CYP3A4 (CYP3A4 [9]): substrate
Compound: C[C@]12CC[C@H](O)CC1=CC[C@@H]1[C@@H]2CC[C@]2(C)C(c3cccnc3)=CC[C@@H]12 [abiraterone]
dose proportionality (dose range of 250 mg to 1,000 mg): No major deviation from dose proportionality
clastogenicity in vitro [2]: not mutagenic in an in vitro microbial mutagenesis (Ames) assay or clastogenic
clastogenicity in vivo [7]: not mutagenic in an in vitro microbial mutagenesis (Ames) assay or clastogenic

share of exposure as circulating metabolite in human plasma [1]: about 43%
Compound: abiraterone sulphate
activity of metabolite [1]: inactive
